Measured values from ChEMBL document CHEMBL1128785, “Modifications of the MeBmt side chain of cyclosporin A” (Bioorg Med Chem Lett, 1995).

What was measured:
Format in all cases: functional
[1] = Tested in vitro for mixed Lymphocyte reaction; 100 times less active than cyclosporin A
[2] = target: T1, Interleukin-2 (Mus musculus) (UniProt P04351); assay: Tested in vitro for inhibition of Interleukin-2 (IL-2) release; 100 times less active than cyclosporin A
T1 sequence (whole entry): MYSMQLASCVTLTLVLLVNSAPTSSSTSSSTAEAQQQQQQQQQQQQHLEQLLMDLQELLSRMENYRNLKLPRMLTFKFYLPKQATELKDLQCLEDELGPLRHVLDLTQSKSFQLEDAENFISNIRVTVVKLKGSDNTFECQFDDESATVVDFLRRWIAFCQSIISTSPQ

[3] = Tested in vitro for mixed Lymphocyte reaction; 2-3 times less active than compound 1
[4] = target: T1, Interleukin-2 (Mus musculus); assay: Tested in vitro for inhibition of Interleukin-2 (IL-2) release; 2-3 times less active than compound 1

Row | Structure (SMILES) | Activity [1] | Activity [2] | Activity [3] | Activity [4]
1 | CC[C@@H]1NC(=O)[C@H]([C@H](O[Si](C)(C)C(C)(C)C)[C@H](C)C[C@H]2OC23CC3)N(C)C(=O)[C@H](C(C)C)N(C)C(=O)[C@H](CC(C)C)N(C)C(=O)[C@H](CC(C)C)N(C)C(=O)[C@@H](C)NC(=O)[C@H](C)NC(=O)[C@H](CC(C)C)N(C)C(=O)[C@H](C(C)C)NC(=O)[C@H](CC(C)C)N(C)C(=O)CN(C)C1=O | 100 times less active than cyclosporin A | 100 times less active than cyclosporin A | – | –
2 | CC[C@@H]1NC(=O)[C@H]([C@@H]2O[C@]3(O)CC[C@@H]3C[C@H]2C)N(C)C(=O)[C@H](C(C)C)N(C)C(=O)[C@H](CC(C)C)N(C)C(=O)[C@H](CC(C)C)N(C)C(=O)[C@@H](C)NC(=O)[C@H](C)NC(=O)[C@H](CC(C)C)N(C)C(=O)[C@H](C(C)C)NC(=O)[C@H](CC(C)C)N(C)C(=O)CN(C)C1=O | 100 times less active than cyclosporin A | 100 times less active than cyclosporin A | – | –
3 | CC[C@@H]1NC(=O)[C@H]([C@H](O)[C@H](C)C[C@@H]2C[C@H]2C)N(C)C(=O)[C@H](C(C)C)N(C)C(=O)[C@H](CC(C)C)N(C)C(=O)[C@H](CC(C)C)N(C)C(=O)[C@@H](C)NC(=O)[C@H](C)NC(=O)[C@H](CC(C)C)N(C)C(=O)[C@H](C(C)C)NC(=O)[C@H](CC(C)C)N(C)C(=O)CN(C)C1=O | – | – | 2-3 times less active than compound 1 | 2-3 times less active than compound 1
4 | CC[C@@H]1NC(=O)[C@H]([C@@H]2OC(C(C)=O)C[C@H]2C)N(C)C(=O)[C@H](C(C)C)N(C)C(=O)[C@H](CC(C)C)N(C)C(=O)[C@H](CC(C)C)N(C)C(=O)[C@@H](C)NC(=O)[C@H](C)NC(=O)[C@H](CC(C)C)N(C)C(=O)[C@H](C(C)C)NC(=O)[C@H](CC(C)C)N(C)C(=O)CN(C)C1=O (stereo not given in full) | 100 times less active than cyclosporin A | 100 times less active than cyclosporin A | – | –
5 | CC=C=CC[C@@H](C)[C@@H](O)[C@H]1C(=O)N[C@@H](CC)C(=O)N(C)CC(=O)N(C)[C@@H](CC(C)C)C(=O)N[C@@H](C(C)C)C(=O)N(C)[C@@H](CC(C)C)C(=O)N[C@@H](C)C(=O)N[C@H](C)C(=O)N(C)[C@@H](CC(C)C)C(=O)N(C)[C@@H](CC(C)C)C(=O)N(C)[C@@H](C(C)C)C(=O)N1C | – | – | 2-3 times less active than compound 1 | 2-3 times less active than compound 1
